Measured values reported in PubChem BioAssay (NCI).
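Tested at 5 concentrations; 48 h exposure; 96-well plates; endpoints linearly interpolated, else capped at highest concentration. Here, GI50 denotes the concentration required for 50% inhibition of growth. At the TGI there is no net growth.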

How the values were obtained:
Assay in all cases: NCI tumour cell line growth inhibition, 48 h
M14 melanoma = tested on: M14 melanoma
SN12C renal = tested on: SN12C renal
NCI-H522 lung = tested on: NCI-H522 lung
ACHN renal = tested on: ACHN renal
IGROV1 ovarian = tested on: IGROV1 ovarian
OVCAR-4 ovarian = tested on: OVCAR-4 ovarian
NCI-H460 lung = tested on: NCI-H460 lung
U251 CNS = tested on: U251 CNS
HS 578T breast = tested on: HS 578T breast
UACC-257 melanoma = tested on: UACC-257 melanoma
NCI-H226 lung = tested on: NCI-H226 lung
HOP-92 NSCLC = tested on: HOP-92 NSCLC
A498 renal = tested on: A498 renal
SK-MEL-5 melanoma = tested on: SK-MEL-5 melanoma
SF-268 CNS = tested on: SF-268 CNS
HCT-116 colon = tested on: HCT-116 colon
RXF 393 renal = tested on: RXF 393 renal
CCRF-CEM leukemia = tested on: CCRF-CEM leukemia
COLO 205 colon = tested on: COLO 205 colon
K-562 leukemia = tested on: K-562 leukemia
SF-295 CNS = tested on: SF-295 CNS
SK-MEL-2 melanoma = tested on: SK-MEL-2 melanoma
HCC-2998 colon = tested on: HCC-2998 colon
HT29 colon = tested on: HT29 colon
T-47D breast = tested on: T-47D breast
DU-145 prostate = tested on: DU-145 prostate
SK-MEL-28 melanoma = tested on: SK-MEL-28 melanoma
OVCAR-5 ovarian = tested on: OVCAR-5 ovarian
LOX IMVI melanoma = tested on: LOX IMVI melanoma
TK-10 renal = tested on: TK-10 renal
SF-539 CNS = tested on: SF-539 CNS
MCF7 breast = tested on: MCF7 breast
UO-31 renal = tested on: UO-31 renal
UACC-62 melanoma = tested on: UACC-62 melanoma
HCT-15 colon = tested on: HCT-15 colon
HL-60(TB) leukemia = tested on: HL-60(TB) leukemia
KM12 colon = tested on: KM12 colon
CAKI-1 renal = tested on: CAKI-1 renal
SW-620 colon = tested on: SW-620 colon
A549 NSCLC = tested on: A549 NSCLC
RPMI-8226 leukemia = tested on: RPMI-8226 leukemia
HOP-62 NSCLC = tested on: HOP-62 NSCLC
786-0 renal = tested on: 786-0 renal
SK-OV-3 ovarian = tested on: SK-OV-3 ovarian
MALME-3M melanoma = tested on: MALME-3M melanoma
SNB-19 CNS = tested on: SNB-19 CNS
MDA-MB-231 breast = tested on: MDA-MB-231 breast
OVCAR-8 ovarian = tested on: OVCAR-8 ovarian
MDA-MB-435 = tested on: MDA-MB-435
EKVX NSCLC = tested on: EKVX NSCLC
PC-3 prostate = tested on: PC-3 prostate
SNB-75 CNS = tested on: SNB-75 CNS
BT-549 breast = tested on: BT-549 breast
SR leukemia = tested on: SR leukemia

SMILES: COc1ccc2c(c1)Oc1nc(N)c(C#N)c(N)c1C2Sc1ccc(C)cc1 (stereo not drawn)
- GI50 (M14 melanoma): 1.85 µM
- TGI (M14 melanoma): 3.36 µM
- GI50 (SN12C renal): 1.59 µM
- TGI (SN12C renal): 2.94 µM
- GI50 (NCI-H522 lung): 1.53 µM
- TGI (NCI-H522 lung): 2.87 µM
- GI50 (ACHN renal): 1.66 µM
- TGI (ACHN renal): 3.02 µM
- GI50 (IGROV1 ovarian): 1.2 µM
- TGI (IGROV1 ovarian): 2.49 µM
- GI50 (OVCAR-4 ovarian): 1.73 µM
- TGI (OVCAR-4 ovarian): 3.13 µM
- GI50 (NCI-H460 lung): 1.98 µM
- TGI (NCI-H460 lung): 3.9 µM
- GI50 (U251 CNS): 1.55 µM
- TGI (U251 CNS): 2.96 µM
- GI50 (HS 578T breast): 2.41 µM
- TGI (HS 578T breast): 5.83 µM
- GI50 (UACC-257 melanoma): 1.71 µM
- TGI (UACC-257 melanoma): 3.11 µM
- GI50 (NCI-H226 lung): 1.97 µM
- TGI (NCI-H226 lung): 4.59 µM
- GI50 (HOP-92 NSCLC): 1.64 µM
- TGI (HOP-92 NSCLC): 3.01 µM
- GI50 (A498 renal): 1.48 µM
- TGI (A498 renal): 2.8 µM
- GI50 (SK-MEL-5 melanoma): 1.79 µM
- TGI (SK-MEL-5 melanoma): 3.19 µM
- GI50 (SF-268 CNS): 1.59 µM
- TGI (SF-268 CNS): 3.04 µM
- GI50 (HCT-116 colon): 1.75 µM
- TGI (HCT-116 colon): 3.31 µM
- GI50 (RXF 393 renal): 1.48 µM
- TGI (RXF 393 renal): 2.81 µM
- GI50 (CCRF-CEM leukemia): 0.421 µM
- TGI (CCRF-CEM leukemia): > 100 µM
- GI50 (COLO 205 colon): 1.9 µM
- TGI (COLO 205 colon): 3.6 µM
- GI50 (K-562 leukemia): 0.584 µM
- TGI (K-562 leukemia): > 100 µM
- GI50 (SF-295 CNS): 1.69 µM
- TGI (SF-295 CNS): 3.08 µM
- GI50 (SK-MEL-2 melanoma): 1.59 µM
- TGI (SK-MEL-2 melanoma): 2.94 µM
- GI50 (HCC-2998 colon): 1.75 µM
- TGI (HCC-2998 colon): 3.26 µM
- GI50 (HT29 colon): 1.8 µM
- TGI (HT29 colon): 3.3 µM
- GI50 (T-47D breast): 1.22 µM
- TGI (T-47D breast): 3.91 µM
- GI50 (DU-145 prostate): 1.87 µM
- TGI (DU-145 prostate): 3.34 µM
- GI50 (SK-MEL-28 melanoma): 1.73 µM
- TGI (SK-MEL-28 melanoma): 3.12 µM
- GI50 (OVCAR-5 ovarian): 1.78 µM
- TGI (OVCAR-5 ovarian): 3.24 µM
- GI50 (LOX IMVI melanoma): 1.41 µM
- TGI (LOX IMVI melanoma): 2.84 µM
- GI50 (TK-10 renal): 1.83 µM
- TGI (TK-10 renal): 3.22 µM
- GI50 (SF-539 CNS): 1.61 µM
- TGI (SF-539 CNS): 2.98 µM
- GI50 (MCF7 breast): 1.26 µM
- TGI (MCF7 breast): 2.9 µM
- GI50 (UO-31 renal): 1.18 µM
- TGI (UO-31 renal): 2.42 µM
- GI50 (UACC-62 melanoma): 1.66 µM
- TGI (UACC-62 melanoma): 3.08 µM
- GI50 (HCT-15 colon): 1.33 µM
- TGI (HCT-15 colon): 2.83 µM
- GI50 (HL-60(TB) leukemia): 1.72 µM
- TGI (HL-60(TB) leukemia): 5.26 µM
- GI50 (KM12 colon): 1.74 µM
- TGI (KM12 colon): 3.15 µM
- GI50 (CAKI-1 renal): 1.34 µM
- TGI (CAKI-1 renal): 2.63 µM
- GI50 (SW-620 colon): 1.77 µM
- TGI (SW-620 colon): 3.38 µM
- GI50 (A549 NSCLC): 1.77 µM
- TGI (A549 NSCLC): 3.33 µM
- GI50 (RPMI-8226 leukemia): 2.61 µM
- TGI (RPMI-8226 leukemia): 7.27 µM
- GI50 (HOP-62 NSCLC): 1.82 µM
- TGI (HOP-62 NSCLC): 3.31 µM
- GI50 (786-0 renal): 1.7 µM
- TGI (786-0 renal): 3.13 µM
- GI50 (SK-OV-3 ovarian): 1.9 µM
- TGI (SK-OV-3 ovarian): 3.39 µM
- GI50 (MALME-3M melanoma): 1.67 µM
- TGI (MALME-3M melanoma): 3.12 µM
- GI50 (SNB-19 CNS): 1.72 µM
- TGI (SNB-19 CNS): 3.12 µM
- GI50 (MDA-MB-231 breast): 1.71 µM
- TGI (MDA-MB-231 breast): 3.13 µM
- GI50 (OVCAR-8 ovarian): 1.73 µM
- TGI (OVCAR-8 ovarian): 3.14 µM
- GI50 (MDA-MB-435): 1.67 µM
- TGI (MDA-MB-435): 3.09 µM
- GI50 (EKVX NSCLC): 1.72 µM
- TGI (EKVX NSCLC): 3.28 µM
- GI50 (PC-3 prostate): 1.62 µM
- TGI (PC-3 prostate): 3.04 µM
- GI50 (SNB-75 CNS): 1.4 µM
- TGI (SNB-75 CNS): 2.7 µM
- GI50 (BT-549 breast): 1.29 µM
- TGI (BT-549 breast): 2.58 µM
- GI50 (SR leukemia): 0.313 µM
- TGI (SR leukemia): > 100 µM
